Test results: patent publication US20230058171A1, “NEW ORAL PHARMACEUTICAL COMPOSITION FOR CANCER THERAPY” (BOEHRINGER INGELHEIM INTERNATIONAL GMBH, priority 2021, published 2023)
Read-outs that look alike come from different tables or passages of the source.

Experiment: Preliminary pharmacokinetics in trial 1403-0001 (Arm A D1 q3w, Arm B D1 D8 q4w)
Format: in vivo, human
Details: for Vd/F / half-life / Tmax / AUC(0-inf) / Cmax: human, plasma, oral
Source text: Preliminary PK data were available from the first 45 treated patients in study 1403-0001. The exploratory PK analysis is based on planned blood sampling time-points and the results are subject to change because not all samples from these patients have been analyzed yet. Therefore, AUCs may be incomplete. In addition, information on the absorption, distribution, and elimination of the MDM2 antagonist of formula I are descriptive given the limited exploratory PK results available up to this point in time.
Consequently the preliminary PK results support the dose selection of 45 mg (and alternatively even of 30 mg) combined with the once in three weeks (D1 q3w) dose regimen. The tmax of the MDM2 antagonist of formula I is generally between 4 and 6 hours after tablet intake.

Q: Which results are given for `Cc1c(C(=O)O)ccc2c3n(nc12)[C@@H]1[C@H](C3)N(CC2CC2)[C@@]2(C(=O)Nc3cc(Cl)ccc32)[C@H]1c1cccc(Cl)c1F` [MDM2-antagonist of formula I, (2′S,3′S,3a'S,10a'S)-6-chloro-3′-(3-chloro-2-fluorophenyl)-1′-(cyclopropylmethyl)-6′-methyl-2-oxo-1,2,3′,3a′,10′,10a′-hexahydro-1′H-spiro[indole-3,2′-pyrrolo[2′,3′:4,5]pyrrolo[1,2-b]indazole]-7′-carboxylic acid]?
A: Vd/F (10 mg, Day 1, D1 D8 q4w (Arm B), gMean, N=3, read-out: Vz/F): 24.5 L; half-life (10 mg, Day 1, D1 D8 q4w (Arm B), gMean, N=3, read-out: t1/2 (converted)): 52.4 h; Tmax (10 mg, Day 1, D1 D8 q4w (Arm B), median, N=3, read-out: tmax): 6 h; AUC(0-inf) (10 mg, Day 8, D1 D8 q4w (Arm B), gMean, N=3, read-out: AUC0-∞): 48.4 µM·h; Cmax (10 mg, Day 8, D1 D8 q4w (Arm B), gMean, N=3, read-out: Cmax): 714 nM; Vd/F (10 mg, Day 8, D1 D8 q4w (Arm B), gMean, N=3, read-out: Vz/F): 23.1 L; half-life (10 mg, Day 8, D1 D8 q4w (Arm B), gMean, N=3, read-out: t1/2 (converted)): 45.9 h; Tmax (10 mg, Day 8, D1 D8 q4w (Arm B), median, N=3, read-out: tmax): 5 h; AUC(0-inf) (15 mg, Day 1, D1 D8 q4w (Arm B), gMean, N=3, read-out: AUC0-∞): 37.8 µM·h; Cmax (15 mg, Day 1, D1 D8 q4w (Arm B), gMean, N=3, read-out: Cmax): 831 nM; Vd/F (15 mg, Day 1, D1 D8 q4w (Arm B), gMean, N=3, read-out: Vz/F): 32.3 L; half-life (15 mg, Day 1, D1 D8 q4w (Arm B), gMean, N=3, read-out: t1/2 (converted)): 33.4 h; Tmax (15 mg, Day 1, D1 D8 q4w (Arm B), median, N=3, read-out: tmax): 5 h; AUC(0-inf) (15 mg, Day 8, D1 D8 q4w (Arm B), gMean, N=2, read-out: AUC0-∞): 25.8 µM·h; Vd/F (15 mg, Day 8, D1 D8 q4w (Arm B), gMean, N=2, read-out: Vz/F): 37.3 L; half-life (15 mg, Day 8, D1 D8 q4w (Arm B), gMean, N=2, read-out: t1/2 (converted)): 26.3 h; Cmax (15 mg, Day 8, D1 D8 q4w (Arm B), gMean, N=3, read-out: Cmax): 776 nM; Tmax (15 mg, Day 8, D1 D8 q4w (Arm B), median, N=3, read-out: tmax): 4 h; Cmax (20 mg, Arm A D1 q3w, 20 mg, N=2, read-out: Cmax (gMean)): 1160 nM; Tmax (20 mg, Arm A D1 q3w, 20 mg, N=2, read-out: tmax (median)): 5.5 h; AUC(0-inf) (20 mg, Day 1, D1 D8 q4w (Arm B), gMean, N=3, read-out: AUC0-∞): 88.9 µM·h; Cmax (20 mg, Day 1, D1 D8 q4w (Arm B), gMean, N=3, read-out: Cmax): 1370 nM; Vd/F (20 mg, Day 1, D1 D8 q4w (Arm B), gMean, N=3, read-out: Vz/F): 27.7 L; half-life (20 mg, Day 1, D1 D8 q4w (Arm B), gMean, N=3, read-out: t1/2 (converted)): 50.5 h; Tmax (20 mg, Day 1, D1 D8 q4w (Arm B), median, N=3, read-out: tmax): 4 h; AUC(0-inf) (20 mg, Day 8, D1 D8 q4w (Arm B), gMean, N=3, read-out: AUC0-∞): 61.1 µM·h; Cmax (20 mg, Day 8, D1 D8 q4w (Arm B), gMean, N=3, read-out: Cmax): 1220 nM; Vd/F (20 mg, Day 8, D1 D8 q4w (Arm B), gMean, N=3, read-out: Vz/F): 30.5 L; half-life (20 mg, Day 8, D1 D8 q4w (Arm B), gMean, N=3, read-out: t1/2 (converted)): 38.2 h; Tmax (20 mg, Day 8, D1 D8 q4w (Arm B), median, N=3, read-out: tmax): 3 h; AUC(0-inf) (30 mg, Arm A D1 q3w, 30 mg, N=3, read-out: AUC0-∞, gMean (gCV [%])): 113 µM·h; Cmax (30 mg, Arm A D1 q3w, 30 mg, N=3, read-out: Cmax (gMean)): 2890 nM; Vd/F (30 mg, Arm A D1 q3w, 30 mg, N=3, read-out: Vz/F, gMean (gCV [%])): 23.6 L; Tmax (30 mg, Arm A D1 q3w, 30 mg, N=3, read-out: tmax (median)): 4 h; AUC(0-inf) (30 mg, Day 1, D1 D8 q4w (Arm B), gMean, N=4, read-out: AUC0-∞): 79.9 µM·h; Cmax (30 mg, Day 1, D1 D8 q4w (Arm B), gMean, N=4, read-out: Cmax): 1440 nM; Vd/F (30 mg, Day 1, D1 D8 q4w (Arm B), gMean, N=4, read-out: Vz/F): 33.1 L; half-life (30 mg, Day 1, D1 D8 q4w (Arm B), gMean, N=4, read-out: t1/2 (converted)): 36.2 h; Tmax (30 mg, Day 1, D1 D8 q4w (Arm B), median, N=4, read-out: tmax): 4.5 h; AUC(0-inf) (30 mg, Day 8, D1 D8 q4w (Arm B), gMean, N=3, read-out: AUC0-∞): 64.8 µM·h; Cmax (30 mg, Day 8, D1 D8 q4w (Arm B), gMean, N=3, read-out: Cmax): 1330 nM; Vd/F (30 mg, Day 8, D1 D8 q4w (Arm B), gMean, N=3, read-out: Vz/F): 44.6 L; half-life (30 mg, Day 8, D1 D8 q4w (Arm B), gMean, N=3, read-out: t1/2 (converted)): 39.5 h; Tmax (30 mg, Day 8, D1 D8 q4w (Arm B), median, N=3, read-out: tmax): 4 h; AUC(0-inf) (45 mg, Arm A D1 q3w, 45 mg, N=6, read-out: AUC0-∞, gMean (gCV [%])): 137 µM·h; Cmax (45 mg, Arm A D1 q3w, 45 mg, N=6, read-out: Cmax (gMean)): 2710 nM; Vd/F (45 mg, Arm A D1 q3w, 45 mg, N=6, read-out: Vz/F, gMean (gCV [%])): 35.1 L; half-life (45 mg, Arm A D1 q3w, 45 mg, N=6, read-out: t1/2 (gMean) (converted)): 43.7 h; Tmax (45 mg, Arm A D1 q3w, 45 mg, N=6, read-out: tmax (median)): 4 h; AUC(0-inf) (45 mg, Day 1, D1 D8 q4w (Arm B), gMean, N=2, read-out: AUC0-∞): 96.9 µM·h; Cmax (45 mg, Day 1, D1 D8 q4w (Arm B), gMean, N=2, read-out: Cmax): 2330 nM; Vd/F (45 mg, Day 1, D1 D8 q4w (Arm B), gMean, N=2, read-out: Vz/F): 34 L; half-life (45 mg, Day 1, D1 D8 q4w (Arm B), gMean, N=2, read-out: t1/2 (converted)): 30 h; Tmax (45 mg, Day 1, D1 D8 q4w (Arm B), median, N=2, read-out: tmax): 4 h; AUC(0-inf) (50 mg, Arm A D1 q3w, 50 mg, N=4, read-out: AUC0-∞, gMean (gCV [%])): 314 µM·h; Cmax (50 mg, Arm A D1 q3w, 50 mg, N=4, read-out: Cmax (gMean)): 3740 nM; Vd/F (50 mg, Arm A D1 q3w, 50 mg, N=4, read-out: Vz/F, gMean (gCV [%])): 23.7 L; half-life (50 mg, Arm A D1 q3w, 50 mg, N=4, read-out: t1/2 (gMean) (converted)): 60.9 h; Tmax (50 mg, Arm A D1 q3w, 50 mg, N=4, read-out: tmax (median)): 5.5 h; AUC(0-inf) (60 mg, Arm A D1 q3w, 60 mg, N=6, read-out: AUC0-∞, gMean (gCV [%])): 163 µM·h; Vd/F (60 mg, Arm A D1 q3w, 60 mg, N=6, read-out: Vz/F, gMean (gCV [%])): 31.4 L; half-life (60 mg, Arm A D1 q3w, 60 mg, N=6, read-out: t1/2 (gMean) (converted)): 34.9 h; Cmax (60 mg, Arm A D1 q3w, 60 mg, N=7, read-out: Cmax (gMean)): 3270 nM; Tmax (60 mg, Arm A D1 q3w, 60 mg, N=7, read-out: tmax (median)): 5 h; AUC(0-inf) (60 mg, Day 1, D1 D8 q4w (Arm B), gMean, N=2, read-out: AUC0-∞): 87.7 µM·h; Cmax (60 mg, Day 1, D1 D8 q4w (Arm B), gMean, N=2, read-out: Cmax): 1960 nM; Vd/F (60 mg, Day 1, D1 D8 q4w (Arm B), gMean, N=2, read-out: Vz/F): 57 L; half-life (60 mg, Day 1, D1 D8 q4w (Arm B), gMean, N=2, read-out: t1/2 (converted)): 34.2 h; Tmax (60 mg, Day 1, D1 D8 q4w (Arm B), median, N=2, read-out: tmax): 6 h; Cmax (60 mg, Day 8, D1 D8 q4w (Arm B), gMean, N=2, read-out: Cmax): 1890 nM; Tmax (60 mg, Day 8, D1 D8 q4w (Arm B), median, N=2, read-out: tmax): 16 h; AUC(0-inf) (80 mg, Arm A D1 q3w, 80 mg, N=2, read-out: AUC0-∞, gMean (gCV [%])): 205 µM·h; Cmax (80 mg, Arm A D1 q3w, 80 mg, N=2, read-out: Cmax (gMean)): 3930 nM; Vd/F (80 mg, Arm A D1 q3w, 80 mg, N=2, read-out: Vz/F, gMean (gCV [%])): 26.5 L; half-life (80 mg, Arm A D1 q3w, 80 mg, N=2, read-out: t1/2 (gMean) (converted)): 27.9 h; Tmax (80 mg, Arm A D1 q3w, 80 mg, N=2, read-out: tmax (median)): 3.5 h; Tmax (after tablet intake, across dose groups, read-out: tmax): 4 to 6 h; half-life (range across dose groups, read-out: half-life): 27.9 to 60.9 h; half-life (Arm A D1 q3w, 30 mg, N=3, read-out: t1/2 (gMean) (converted)): 36.4 h; clearance (humans, preliminary PK data): low clearance; dose levels at which exposure (Cmax and AUC0-inf) is above predicted therapeutic exposures (humans, preliminary PK data): ≥ 15 mg; volume of distribution (humans, preliminary PK data): very low volume of distribution
